{"source": "patent US5122514A", "about": "“Psoriasis treatment” (Abbott Laboratories, priority 1991, dated 1992)", "system": "psoriatic lesions on the patient's elbow, face and scalp", "assay": "Grading of psoriatic lesions in a patient after intravenous enalkiren", "type": "in vivo, human", "design": "key to Right Elbow Lesions lesion severity, lesion ranking: 0: Complete clearing; 1: Minimal severity; 2: Moderately severe; 3: Severe; 4: More severe; key to Right Elbow Lesions erythema, lesion ranking / Face Lesions erythema, lesion ranking / Scalp Lesions erythema, lesion ranking: 0: None; 1: Very Mild: light red/pink; 2: Moderate: red but still not dark in texture; 3: Strong: very red, possibly dark; 4: Extreme: angry red", "method": "A patient with documented psoriasis received 0.1 mg/kg of enalkiren (H-((beta,beta-dimethyl)-beta-Ala)-(4-OCH3)Phe-His amide of 2(S)-amino-1cyclohexyl-3(R), 4(S)-dihydroxy-6-methylheptane diacetic acid salt)(enalkiren 5.0 mg/5 ml (0.1% concentration), glacial acetic acid 0.91 mg/5ml and sodium chloride 43.9 mg/5 ml in water for injection) intravenously over a 5 minute period, followed 40 minutes later by administration of an additional 0.3 mg/kg of enalkiren intravenously over a 5 minute period. The psoriatic lesions on the patient's elbow, face and scalp were graded prior to treatment and 2, 4 and 7 days following treatment.", "key": {"[1]": {"conditions": "+2 Days after 0.1 mg/kg then 0.3 mg/kg intravenously"}, "[2]": {"conditions": "+4 Days after 0.1 mg/kg then 0.3 mg/kg intravenously"}, "[3]": {"conditions": "+7 Days after 0.1 mg/kg then 0.3 mg/kg intravenously"}, "[4]": {"conditions": "Treatment Day (graded prior to treatment), person with psoriasis"}}, "note": "Counter-ions that a name gives are not always drawn."}
{"smiles": "COc1ccc(C[C@H](NC(=O)CC(C)(C)N)C(=O)N[C@@H](Cc2cnc[nH]2)C(=O)N[C@@H](CC2CCCCC2)[C@@H](O)[C@@H](O)CC(C)C)cc1", "note": "[Enalkiren, H-((beta,beta-dimethyl)-beta-Ala)-(4-OCH3)Phe-His amide of 2(S)-amino-1cyclohexyl-3(R), 4(S)-dihydroxy-6-methylheptane diacetic acid salt]", "values": [{"measurement": "Face Lesions erythema, lesion ranking", "setting": "[1]", "value": 3}, {"measurement": "Right Elbow Lesions erythema, lesion ranking", "setting": "[1]", "value": 4}, {"measurement": "Right Elbow Lesions lesion severity, lesion ranking", "setting": "[1]", "value": 4}, {"measurement": "Scalp Lesions erythema, lesion ranking", "setting": "[1]", "value": 4}, {"measurement": "Face Lesions erythema, lesion ranking", "setting": "[2]", "value": 2}, {"measurement": "Right Elbow Lesions erythema, lesion ranking", "setting": "[2]", "value": 3}, {"measurement": "Right Elbow Lesions lesion severity, lesion ranking", "setting": "[2]", "value": 3}, {"measurement": "Scalp Lesions erythema, lesion ranking", "setting": "[2]", "value": 3}, {"measurement": "Face Lesions erythema, lesion ranking", "setting": "[3]", "value": 2}, {"measurement": "Right Elbow Lesions erythema, lesion ranking", "setting": "[3]", "value": 3}, {"measurement": "Right Elbow Lesions lesion severity, lesion ranking", "setting": "[3]", "value": 3}, {"measurement": "Scalp Lesions erythema, lesion ranking", "setting": "[3]", "value": 3}, {"measurement": "Face Lesions erythema, lesion ranking", "setting": "[4]", "value": 3}, {"measurement": "Right Elbow Lesions erythema, lesion ranking", "setting": "[4]", "value": 4}, {"measurement": "Right Elbow Lesions lesion severity, lesion ranking", "setting": "[4]", "value": 4}, {"measurement": "Scalp Lesions erythema, lesion ranking", "setting": "[4]", "value": 4}]}
